In US20040191327A1, “Method of treating and/or preventing asthma using natural compound luteolin” (Council of Scientific and Industrial Research, priority 2003, published 2004):
“And” between values parts separate entries of the source, which are not always exact repeats. Equal values may be shown once. Marks after values point to notes of the source that are not given here.

What was measured:
[1] = tested on: IFN-γ; experiment: IFN-γ level in BALF by ELISA; format: in vivo, mouse; conditions: mean±SEM, n=6
Procedure: (§1) After testing the compound for the preventive as well as for therapeutic effects in intact conscious mice, mice were sacrificed for collecting the blood and bronchoalveolar lavage (BAL) fluid to measure the levels of IgE, cytokines IL-4, IL-5 and IFN-γ. Ovalbumin specific IgE levels in the sera and the levels of IL-4, IL-5 and IFN-γ in the BAL fluid were measured by enzyme linked ImmunoSorbent assay (ELISA) kits.
(§2) Experiments were performed with six groups of mice (n=6) as described in FIG. 3 legend and the levels of IFN-γ, IL-4 and IL-5 were measured in the BALF. The values are a mean±SEM of six mice in each group. Mann Whitney U test was used to determine the significant differences between the sensitized- and Luteolin treated groups. * p <0.05, ** p<0.01. ‘a’ denotes treatment during sensitization; ‘b’ denotes treatment after sensitization.
(§3) Mice were immunized/sensitized with or without (sham-sensitized) 0.2 ml of 10 μg ovalbumin (Sigma Chemicals Co. St Louis, Mo., USA) and 2 mg aluminum hydroxide intraperitoneally on days 0,7 and 14 using a modified protocol previously described by Sakai et al (FIG. 2). Five days after the final i.p injection, the mice were subjected to aerosolized OVA (5%) or phosphate buffered saline (PBS) (for sham-sensitized group) inhalation for 20 minutes daily beginning from day 19 to day 23 (FIG. 2). Mice were placed in a plexiglas chamber (20×20×20 cm dimensions) and exposed to an aerosol generated from a nebulizer (de Vilbiss, USA) with airflow of 41/min.
(§4) To study the preventive effect, Luteolin (dissolved in 50% hydro-alcohol) (Sigma Chemicals Co. St Louis, Mo., USA) (0.1, 1.0, and 10.0 mg/kg body weight, 20 □| volume) or vehicle (i.e., 50% hydro-alcohol) was administered orally to each group of mice daily, starting from the first day of sensitization (FIG. 2A). To study the curative effect, mice were first sensitized as described before (Example 1) followed by oral Luteolin (1.0 mg/kg body weight) treatment daily from day 26 to 32 (FIG. 2B).
(§5) To investigate the levels of IL-4 and IFN-[…] in the BALF, we measured the cytokine levels by ELISA as per manufacturer's protocol, and compared between the different groups. […] In the Luteolin-treated group, there was an increase in the ratio of IFN-γ/IL-4 (25.8±2.7, 15.5±1.3, 13.2±2.5 following doses of 0.1, 1.0 and 10.0 mg/kg Luteolin, respectively as compared to 0.48±0.1 in sensitized, vehicle treated mice) (p<0.01) (Table 1). […] This increase in the IFN-γ/IL-4 ratio was due to the increase in the IFN-γ levels. We also measured the concentration of IL-5 in the BALF by ELISA in the different groups (Table 1). […]

[2] = tested on: OVA-specific IgE; experiment: OVA-specific IgE levels in serum by ELISA; format: in vivo, mouse
Procedure: as §1, §3, §4
OVA-specific IgE levels in the serum were measured by enzyme linked ImmunoSorbent assay (ELISA), To investigate the effect of Luteolin on serum IgE levels, we compared the levels of the OVA-specific IgE in serum of mice treated with vehicle or with Luteolin (0.1, 1.0 and 10.0 mg/kg) during sensitization and in sham-sensitized mice.

[3] = tested on: OVA-sensitized mice; experiment: OVA-induced airway constriction (fall of specific airway conductance, SGaw) in mouse model of asthma; format: in vivo
Procedure: Protocol A: The mice were given three i.p. Injections of 10 μg ovalbumin adsorbed on 2 mg alum on 0, 7 and 14 days and then subjected to OVA aerosol inhalation for five consecutive days from 19th to 23rd day of the experiment. On 24th day SGaw measurements were performed after OVA challenge in the plethysmograph and airway reactivity to methacholine was measured after 24 hours. In case of curative study (Protocol B), sensitized mice were fed with 1 mg/kg body weight of Luteolin for one week (days 26-32) and the effects on SGaw and airway reactivity were evaluated. Mice were immunized/sensitized with or without (sham-sensitized) 0.2 ml of 10 μg ovalbumin (Sigma Chemicals Co. St Louis, Mo., USA) and 2 mg aluminum hydroxide intraperitoneally on days 0,7 and 14 using a modified protocol previously described by Sakai et al (FIG. 2). Five days after the final i.p injection, the mice were subjected to aerosolized OVA (5%) or phosphate buffered saline (PBS) (for sham-sensitized group) inhalation for 20 minutes daily beginning from day 19 to day 23 (FIG. 2). Mice were placed in a plexiglas chamber (20×20×20 cm dimensions) and exposed to an aerosol generated from a nebulizer (de Vilbiss, USA) with airflow of 41/min. To study the preventive effect, Luteolin (dissolved in 50% hydro-alcohol) (Sigma Chemicals Co. St Louis, Mo., USA) (0.1, 1.0, and 10.0 mg/kg body weight, 20 □| volume) or vehicle (i.e., 50% hydro-alcohol) was administered orally to each group of mice daily, starting from the first day of sensitization (FIG. 2A). […] Airway calibre was measured in the term of specific airway conductance (SGaw) using a dual-chamber whole body plethysmograph similar to the method for guinea pigs (Agrawal, 1981) with some modifications. […] The value of SGaw was calculated as described by Agrawal (1981). Airway constriction of mice was determined in terms of fall of SGaw due to OVA aerosol challenge. SGaw was measured as described in Example 3. […]

[4] = tested on: IL-4; experiment: IL-4 level in BALF by ELISA; format: in vivo, mouse; conditions: mean±SEM, n=6
Procedure: as §1, §2, §3, §4, §5

[5] = tested on: OVA-sensitized mice; experiment: Airway reactivity to methacholine (MCh PD35) in mouse model of asthma; format: in vivo
Procedure: Protocol A: The mice were given three i.p. Injections of 10 μg ovalbumin adsorbed on 2 mg alum on 0, 7 and 14 days and then subjected to OVA aerosol inhalation for five consecutive days from 19th to 23rd day of the experiment. On 24th day SGaw measurements were performed after OVA challenge in the plethysmograph and airway reactivity to methacholine was measured after 24 hours. In case of curative study (Protocol B), sensitized mice were fed with 1 mg/kg body weight of Luteolin for one week (days 26-32) and the effects on SGaw and airway reactivity were evaluated.
as §3, §4
Airway reactivity to methacholine was determined by measuring the concentration of inhaled methacholine that produced 35% fall in SGaw (MCh PD35) in intact mouse sitting in the body plethysmograph. Aerosol of different concentrations of methacholine (3.1, 6.25, 12.5, 50, 100 mg/ml) were given for 60 seconds. MCh PD35 values were determined in sham-sensitized, sensitized and Luteolin treated mice during and after sensitization. […] Treatment with Luteolin (0.1, 1.0 and 10.0 mg/kg during sensitization) markedly attenuated the development of airway hyperreactivity to methacholine. MCh PD35 values increased following Luteolin treatment to 72.1±1.9, 42.4±4.2 and 10.9±4.8 mg/ml, respectively (p<0.01).

[6] = tested on: OVA-sensitized mice; experiment: Mouse model of asthma, effective oral dose; format: in vivo
Procedure: In this context, Luteolin was tested on mouse model of asthma. Mice were sensitized with intraperitoneal and aerosol inhalation of OVA to develop the characteristic features of asthma such as allergen induced early airway response (EAR) and late airway response (LAR). These asthmatic features were characterized by measuring airway calibre in the term of specific airway conductance (SGaw) by a non-invasive technique, dual-chamber whole body plethysmography. After developing the characteristic features (EAR and LAR) in mouse, the compound, Luteolin was given orally during whole sensitization period to test the preventive effect on the development of asthmatic features. To examine the therapeutic effect of Luteolin on the asthmatic features, it was fed for one week to mice after sensitization and confirming their asthmatic features.
as §4

[7] = tested on: IL-5; experiment: IL-5 level in BALF by ELISA; format: in vivo, mouse; conditions: mean±SEM
Procedure: as §1, §2, §3, §4, §5

[8] = 10.0 mg/kg during sensitization
[9] = 1.0 mg/kg oral during sensitization
[10] = 10.0 mg/kg oral during sensitization
[11] = 1.0 mg/kg oral for one week after sensitization

Structure (SMILES): O=c1cc(-c2ccc(O)c(O)c2)oc2cc(O)cc(O)c12 [Luteolin]
- IFN-γ ([1]; 0.1 mg/kg during sensitization): 3533 ± 427** pg/ml
- IFN-γ ([1]; 1.0 mg/kg after sensitization): 2067 ± 233.3** pg/ml
- IFN-γ ([1]; 1.0 mg/kg during sensitization): 2652 ± 114.3** pg/ml
- IFN-γ [1, 8]: 1247 ± 412.5** pg/ml
- OVA-specific serum IgE level ([2]; 0.1 mg/kg oral during sensitization, sensitized vehicle 3.3±0.4): 0.74±0.4
- OVA-specific serum IgE level [2, 9]: 0.93±0.03
- OVA-specific serum IgE level ([2]; 1.0 mg/kg oral for a week after sensitization): 2.07±1
- OVA-specific serum IgE level [2, 10]: 0.97±0.07
- decrease in SGaw after OVA challenge ([3]; 0.1 mg/kg oral daily during sensitization, sensitized vehicle mice 43% fall): 7%
- OVA-induced decrease in SGaw, curative effect [3, 11]: reverse OVA-induced decrease in SGaw
- reduction of OVA-induced decrease in SGaw at higher doses ([3]; 1.0 and 10.0 mg/kg oral daily during sensitization, versus 0.1 mg/kg): did not show any greater reduction
- IL-4 ([4]; 0.1 mg/kg during sensitization): 136 ± 4.0 pg/mL
- IL-4 ([4]; 1.0 mg/kg after sensitization): 130 ± 5.0 pg/mL
- IL-4 ([4]; 1.0 mg/kg during sensitization): 169 ± 13.9 pg/mL
- IL-4 [4, 8]: 128 ± 8.8 pg/mL
- MCh PD35 ([5]; 0.1 mg/kg oral during sensitization, sensitized 1.3±0.5, normal 97±1.0): 72.1 ± 1.9 mg/mL
- MCh PD35 [5, 9]: 42.4 ± 4.2 mg/mL
- MCh PD35 [5, 11]: increased significantly
- MCh PD35 [5, 10]: 10.9 ± 4.8 mg/mL
- effective dose [6]: 1 mg/kg body weight
- IL-5 ([7]; 0.1 mg/kg during sensitization, n=6, 0.1 mg/kg): 73.3±13.4 pg/ml and 73 ± 13.4* pg/ml
- IL-5 ([7]; 1.0 mg/kg after sensitization (one week), n=6, 1 mg/kg): 43.7±2.3 pg/ml and 44 ± 2.3* pg/ml
- IL-5 ([7]; 1.0 mg/kg during sensitization, n=6, 1 mg/kg): 43.3±3.5 pg/ml and 43 ± 3.5* pg/ml
- IL-5 ([7]; 10.0 mg/kg during sensitization, n=6): 235 ± 66.4 pg/mL
